Assays:
[1] = tested on: TGF-β-induced fibronectin expression; experiment: Western blot of TGF-β-induced fibronectin expression in MRC-5 fibroblasts (5 ng/ml TGF-β); assay type: cell-based, human; conditions: MRC-5, 5 ng/ml TGF-β, digoxin 30, 60, 120, 240 nM, 24 hours
Description: (§1) Representative blots are shown with two exposures of fibronectin to account for strong signal intensity. n=3.

[2] = tested on: TGF-β-induced fibronectin; experiment: High content imaging (Cellomics) screen for inhibitors of fibronectin induction by TGF-beta in WPMY-1 cells; assay type: cell-based, human; conditions: WPMY-1, 0-100 uM, TGF-β 24 hour
Description: Inhibitors of CAF Differentiation. A. WPMY-1 cells were plated into each well of 4-chamber slice (for IF), or (C) in a 24 well plate (for western blot analysis). After cell attachment, vehicle or 5 ng/ml TGF-β was added into each well and incubated for 24 h in a 37° C. in a humidified incubator containing 5% CO2. For fluorescence detection (A), cells were fixed and stained with antibody detecting fibronectin and/or stained with DAPI to detect the nuclei. Protein was extracted with boiling Lamaelli buffer for WB (C) and blots were probed with anti-fibronectin or anti-tubulin antibodies. Fibronectin fluorescence (D and E) was measured in the presence or absence of TGF-β in 8 well replicates as follows. Cells were conditioned in serum-free DMEM for 48 hr prior to the addition of TGF-β. Images were acquired using a Cellomics platform with a mask shown in the schematic of (B). The mean of the total fluorescence intensity in each well was calculated from 300 cells per image field and up to 15 fields from each well for fibronectin. […]
FIGS. 4A-4H: Dose response for identified hits. As shown in the four panels of FIG. 4A, fibronectin fluorescence was measured from images acquired following a Cellomics scan using WPMY-1 cells with concentrations of hits over a range of 0-100 uM. […] Results were expressed as percent inhibition caused by cells treated with TGF-β alone and without testing compound, which was considered as 100%. […]
FIGS. 14-15 show Table I—Prestwick Library and Table II—NIH Library chemicals respectively. […] A “hit” was defined as a compound causing at least 50% reduction of “Mean_RingTotal Intensity”, which is the fluorescence intensity within the defined ring (see FIG. 2) surrounding nucleus of each cell, summed for 300 cells per image and 15 fields per image. The solvent, 0.1% Dimethyl Sulfoxide (DMSO), with and without TGF-beta served as an internal control on each plate to normalize day-to-day and plate-to-plate variation with DMSO alone as low fluorescence (0%) and TGF-β treated as maximal fluorescence (100%). […]

[3] = tested on: TGF-β-induced CAF differentiation markers; experiment: Real-Time PCR of CAF markers in MRC-5 fibroblasts; assay type: cell-based, human; conditions: MRC-5, 120 nM digoxin, 5 ng/ml TGF-β, 24 h
Description: In order to determine if digoxin prevents CAF differentiation or simply TGF-β-induced fibronectin expression, the inventors performed quantitative reverse transcriptase-PCR (qPCR) to analyze other CAF markers, including α-SMA, collagen 1a1 (COL1A1), fibroblast activation protein (FAP), and tenascin C (TNC). RNA was extracted from cells treated with 120 nM digoxin±TGF-β for 24 hours. […] Additionally, the inventors observed that α-SMA mRNA expression was already high in WPMY-1 cells and not increased by addition of TGF-β, but was reduced in response to digoxin treatment.

MRC-5 fibroblasts = experiment: Collagen/Matrigel contraction of MRC-5 fibroblasts; conditions: MRC-5 in collagen/Matrigel, 120 nM digoxin, 5 ng/ml TGF-β, 4 days
Description: WPMY-1 (A) and MRC-5 (B) fibroblasts were treated with or without 120 nM digoxin±5 ng/ml TGF-β. […] WPMY-1 (C) and MRC-5 (D) fibroblasts embedded in collagen/Matrigel were treated with or without 120 nM digoxin±5 ng/ml TGF-β for 4 days post seeding. Data are shown as percent contracted area from initial 100% well confluence. *P<0.05 and **P<0.01 indicate significant differences (n=3, Values are ±SEM).

[4] = tested on: TGF-β-induced fibronectin expression; experiment: Western blot of TGF-β-induced fibronectin expression in WPMY-1 fibroblasts; assay type: cell-based, human; conditions: WPMY-1, 5 ng/ml TGF-β, digoxin 30, 60, 120, 240 nM, 24 hours
Description: Inhibitors of CAF Differentiation. A. WPMY-1 cells were plated into each well of 4-chamber slice (for IF), or (C) in a 24 well plate (for western blot analysis). After cell attachment, vehicle or 5 ng/ml TGF-β was added into each well and incubated for 24 h in a 37° C. in a humidified incubator containing 5% CO2. For fluorescence detection (A), cells were fixed and stained with antibody detecting fibronectin and/or stained with DAPI to detect the nuclei. Protein was extracted with boiling Lamaelli buffer for WB (C) and blots were probed with anti-fibronectin or anti-tubulin antibodies. Fibronectin fluorescence (D and E) was measured in the presence or absence of TGF-β in 8 well replicates as follows. Cells were conditioned in serum-free DMEM for 48 hr prior to the addition of TGF-β. Images were acquired using a Cellomics platform with a mask shown in the schematic of (B). The mean of the total fluorescence intensity in each well was calculated from 300 cells per image field and up to 15 fields from each well for fibronectin. The fold change in fibronectin expression per acquired image (nuclei) is shown (Mean+/−SD).
Panel A1 is the control, Panel A2 is the TGF-β treated wells and Panel A3 is TGF-β plus PsA at 5 micromolar. Images were captured using the Cellomics imaging system.
as §1
FIGS. 9A-9B: Increases in intracellular Ca^2+ prevent TGF-β-induced fibronectin expression. (A) WPMY-1 fibroblasts were treated with 2.5 μM thapsigargin±5 ng/ml TGF-β for 24 hours. (B) WPMY-1 fibroblasts were treated with 2.5-10 μM 3′,4′-dichlorobenzamil hydrochloride (DCB)±5 ng/ml TGF-β for 24 hours. Cell lysates were analyzed by western blot for fibronectin expression.
Because of the observed low nanomolar effective concentration of the cardiac glycosides, the inventors hypothesized that the cardiac glycosides may be acting by binding to their high affinity target, the Na^+/K^+ ATPase, and that action through the ATPase is the mechanism by which the cardiac glycosides are able to block TGF-β-induced fibronectin expression. It is well documented that inhibition of the Na^+/K^+ ATPase by digoxin leads to increases in intracellular Ca^2+ by preventing Ca^2+ efflux through the Na^+/Ca^2+ exchanger. In order to determine if increased intracellular Ca^2+ is sufficient to prevent TGF-β-induced fibronectin expression, the inventors utilized two compounds that increase intracellular Ca^2+ concentrations. 3′,4′-dichlorobenzamil hydrochloride (DCB) inhibits the Na^+/Ca^2+ exchanger, Na^+ transport, and sarcoplasmic reticulum Ca^2+ release channels. Thapsigargin inhibits the endoplasmic reticulum Ca^+ ATPase, preventing storage of Ca^2+ in the endoplasmic reticulurn, causing an accumulation in the cytoplasm. Cells were treated with 2.5-10 μM of DCB or thapsigargin±TGF-β for 24 hours.

C[C@H]1O[C@@H](O[C@H]2[C@@H](O)C[C@H](O[C@H]3[C@@H](O)C[C@H](O[C@H]4CC[C@@]5(C)[C@H](CC[C@@H]6[C@@H]5C[C@@H](O)[C@]5(C)[C@@H](C7=CC(=O)OC7)CC[C@]65O)C4)O[C@@H]3C)O[C@@H]2C)C[C@H](O)[C@@H]1O [digoxin]
TGF-β-induced fibronectin expression (western blot) [1]: prevents TGF-β-induced fibronectin expression in a dose dependent manner | IC50 / potency for inhibition of TGF-β-induced fibronectin (dose response) [2]: very low IC50 | TGF-β-induced expression of FN1, α-SMA, COL1A1, TNC mRNA [3]: prevented TGF-β-induced expression | TGF-β induced contraction of fibroblasts (MRC-5 fibroblasts): inhibits TGF-β induced contraction of fibroblasts | TGF-β-induced fibronectin expression (western blot) [4]: prevents TGF-β-induced fibronectin expression in a dose dependent manner

From patent US11096952B2, “Chemicals and methods to prevent and treat TGF-beta mediated activation of fibroblasts to reduce and treat cancer and fibrosis” (Board of Supervisors of Louisiana State University and …, priority 2016, dated 2021)
